Data set [1] in a line: Evaluation of cool feeling intensity (EC50, with reference to NPL 6). To be noted: index of the cool feeling intensity; read-out: EC50 (concentration at which a cool feeling is felt). The data set is classed as cell-based. As to the method:
The measurement of the cool feeling intensity was performed with reference to NPL 6. A concentration EC50 at which a cool feeling is felt is shown below as the index of the cool feeling intensity.

The nature of data set [2]: Sensory evaluation of aqueous solutions against comparative compounds. In kind it is in vivo. As to conditions: for course / persistence of cool feeling intensity / start of cool feeling / taste and accompanying sensations (umami, salty, bitterness, numbness, fiery feeling): vs Comparative Compound 3; for cool feeling characteristic: rac-14a-38 vs Comparative Compound 1 (Evercool 180). The protocol: Sensory Evaluation was performed by comparison with Comparative Compound 1 (Evercool 180), which has a strong cool feeling among conventionally known compounds, and has a similar structure. Each of Exemplary Compound rac-14a-38 and Comparative Compound 1 was prepared as a 2 ppm aqueous solution, and the evaluation was performed.
Sensory Evaluation was performed by comparison with Comparative Compound 2, which is conventionally known, and has a similar structure. Each of Exemplary Compound rac-14a-23 and Comparative Compound 2 was prepared as a 30 ppm aqueous solution, and the evaluation was performed.
Sensory Evaluation was performed by comparison with Comparative Compound 3, which is conventionally known, and has a similar structure. Each of Exemplary Compound rac-14a-34 and Comparative Compound 3 was prepared as a 30 ppm aqueous solution, and the evaluation was performed.
Sensory Evaluation was performed by comparison with Comparative Compound 3, which is conventionally known, and has a similar structure. Each of Exemplary Compound rac-14a-40 and Comparative Compound 3 was prepared as a 30 ppm aqueous solution, and the evaluation was performed.
Sensory Evaluation was performed by comparison with Comparative Compound 3 which is conventionally known. Each of Exemplary Compound rac-14a-46 and Comparative Compound 3 was prepared as a 30 ppm aqueous solution, and the evaluation was performed.
Sensory Evaluation was performed by comparison with Comparative Compound 3 which is conventionally known. Each of Exemplary Compound rac-14a-41 and Comparative Compound 3 was prepared as a 30 ppm aqueous solution, and the evaluation was performed.
Sensory Evaluation was performed by comparison with Comparative Compound 3 which is conventionally known. Each of Exemplary Compound rac-14a-47 and Comparative Compound 3 was prepared as a 30 ppm aqueous solution, and the evaluation was performed.

Setting [3] is: 30 ppm aqueous solution, vs Comparative Compound 2.

Entries after “also recorded” stand apart in the source; their conditions may differ.

Regarding `CC(C)[C@@H]1CCC(C)(C)C[C@H]1OC(=O)[C@H](C)O` [(1R,2S)-17a-2, (S)-((1R,2S)-2-isopropyl-5,5-dimethylcyclohexyl)2-hydroxypropanoate], the EC50 in data set [1] was 78.5 µM.
`COc1ccc(NC(=O)C2CC(C)(C)CCC2C(C)C)cc1O` (racemic) [rac-14a-41, N-(3-hydroxy-4-methoxyphenyl)-2-isopropyl-5,5-dimethylcyclohexanecarboxamide]: the melting point (usually the temperature of the solid-liquid transition) is 93 to 98 °C. For the same compound, the EC50 in data set [1] is 0.027 µM. In data set [2] (30 ppm aqueous solution), the “course / persistence of cool feeling intensity” value (from here on “course / persistence”) is “also has persistence”; the “start of cool feeling” value was “slightly earlier than Comparative Compound 3”; the “taste and accompanying sensations (umami, salty, bitterness, numbness, fiery feeling)” value (from here on “taste and accompanying sensations”) is listed as “Chemical-like bitterness was somewhat felt as a first taste; also recorded: accompanied by a clear feeling than a fiery feeling”.
For the compound `COC(=O)c1cccc(NC(=O)C2CC(C)(C)CCC2C(C)C)c1` (racemic) [rac-14a-44, methyl 3-(2-isopropyl-5,5-dimethylcyclohexanecarboxamide) benzoate], the EC50 in data set [1] turned out to be 5.24 µM.
`CC(C)C1CCC(C)(C)CC1C(=O)Nc1ccc(CO)cc1` (racemic) [rac-14a-47, N-(4-(hydroxymethyl)phenyl)-2-isopropyl-5,5-dimethylcyclohexanecarboxamide] had a melting point of 165 to 172 °C. In addition, the EC50 in data set [1] was 0.048 µM. In data set [2] (30 ppm aqueous solution), the “course / persistence” value is recorded as “also has persistence”; the “start of cool feeling” value was “early start of a cool feeling”; the “taste and accompanying sensations” value is “stronger umami was felt than that in Comparative Compound 3; also recorded: accompanied by a fiery feeling (burning feeling)”.
Compound `CC(C)C1CCC(C)(C)CC1C(=O)NCCc1ccccn1` (racemic) [rac-14a-16, 2-isopropyl-5,5-dimethyl-N-(2-(pyridin-2-yl)ethyl)cyclohexanecarboxamide] registered a melting point of 104 to 107 °C. The EC50 in data set [1] turned out to be 0.13 µM.
`CC(C)C1CCC(C)(C)CC1C(N)=O` (stereo not shown) [14a-50, 2-isopropyl-5,5-dimethylcyclohexanecarboxamide] returned a melting point of 141 to 145 °C. Further, the EC50 in data set [1] worked out at 15.5 µM.
Compound `CCOC(=O)CNC(=O)C1CC(C)(C)CCC1C(C)C` (racemic) [rac-14a-23, ethyl 2-(2-isopropyl-5,5-dimethylcyclohexanecarboxamide) acetate] had a melting point of 104 to 107 °C. The EC50 in data set [1] was 0.49 µM. Also, in data set [2] (setting [3]), the “cool feeling intensity peak” value is “comparable to that of Comparative Compound 2”, the “exhibition of a cool feeling (start)” value is given as “later than Comparative Compound 2”, the “persistence of cool feeling” value was “superior to that of Comparative Compound 2” and the “sharp cool feeling stimulation” value was “stronger than that in Comparative Compound 2”.
As for `COc1ccc(NC(=O)C2CC(C)(C)CCC2C(C)C)c(C)c1` (racemic) [rac-14a-40, 2-isopropyl-N-(4-methoxy-2-methylphenyl)-5,5-dimethylcyclohexanecarboxamide], the EC50 in data set [1] was 0.079 µM. Further, the “taste and accompanying sensations” value in data set [2] (30 ppm aqueous solution) is “stronger and shaper than those of Comparative Compound 3; also recorded: Umami and a numbness feeling were exhibited simultaneously”.
On to `CC(C)[C@@H]1CCC(C)(C)C[C@H]1OC(=O)[C@H](C)O` (racemic) [rac-17a-2, (S)-(trans-2-isopropyl-5,5-dimethylcyclohexyl)2-hydroxypropanoate], for which the EC50 in data set [1] came to 64.7 µM.
`CC(C)[C@@H]1CC[C@@H](C)C[C@H]1C(=O)Nc1ccc(CC#N)cc1` [Evercool 180, reference compound]: in data set [2] (2 ppm aqueous solution), the cool feeling characteristic entry was “menthol-like characteristic”.
As to `CC(C)[C@H]1CCC(C)(C)C[C@@H]1OC(=O)[C@H](C)O` [(1S,2R)-17a-2, (S)-((1S,2R)-2-isopropyl-5,5-dimethylcyclohexyl)2-hydroxypropanoate], the EC50 in data set [1] is 24.5 µM.
For `COc1ccc(NC(=O)C2CC(C)(C)CCC2C(C)C)cc1` (racemic) [rac-14a-34, 2-isopropyl-N-(4-methoxyphenyl)-5,5-dimethylcyclohexanecarboxamide], the melting point lay in the range of 115 to 118 °C. Moreover, the EC50 in data set [1] was found to be 0.055 µM. In addition, in data set [2] (30 ppm aqueous solution), the “course / persistence” value is “increased over time”; the “start of cool feeling” value is on record as “later than Comparative Compound 3”; the “taste and accompanying sensations” value is “comparable to that of Comparative Compound 3; also recorded: the secretion of saliva continued”.
For the compound `CCNC(=O)C1CC(C)(C)CCC1C(C)C` (racemic) [rac-14a-2, N-ethyl-2-isopropyl-5,5-dimethylcyclohexanecarboxamide], the melting point was 101 to 105 °C. Moreover, in data set [1], the EC50 came to 2.27 µM.
Turning to `COC(=O)c1ccc(NC(=O)C2CC(C)(C)CCC2C(C)C)c(C)c1` (racemic) [rac-14a-46, methyl 4-(2-isopropyl-5,5-dimethylcyclohexanecarboxamide)-3-methylbenzoate], the EC50 in data set [1] stood at 1.5 µM. In addition, in data set [2] (30 ppm aqueous solution), the “course / persistence” value is “the cool feeling intensity persisted”; the “start of cool feeling” value is reported as “the start was late”; the “taste and accompanying sensations” value was “clear and light touch characteristic of an ester”.
Consider `CC(C)C1CCC(C)(C)CC12OCC(CO)O2` (racemic) [(1R,2S)-19a-1, (6-isopropyl-9,9-dimethyl-1,4-dioxaspiro[4.5]decan-2-yl)methanol], for which, in data set [1], the EC50 came out at 32.4 µM.
Take `CC(C)[C@@H]1CCC(C)(C)C[C@H]1C(=O)Nc1ccc(CC#N)cc1` [14a-38i, (−)-trans-N-(4-(cyanomethyl)phenyl)-2-isopropyl-5,5-dimethylcyclohexanecarboxamide]: the EC50 in data set [1] was determined as 0.14 µM.
On the same count and under the same terms, with `COC(=O)c1ccc(NC(=O)C2CC(C)(C)CCC2C(C)C)cc1` (racemic) [rac-14a-45, methyl 4-(2-isopropyl-5,5-dimethylcyclohexanecarboxamide) benzoate] the figure was 3.53 µM.
Regarding `CC(C)C1CCC(C)(C)CC1C(=O)Nc1ccc(CC#N)cc1` (racemic) [rac-14a-38, N-(4-(cyanomethyl)phenyl)-2-isopropyl-5,5-dimethylcyclohexanecarboxamide], the melting point lay within 121 to 122 °C. In data set [1], the EC50 was 0.24 µM. For the same compound, in data set [2] (2 ppm aqueous solution), the “lapse until cool feeling exhibited after put in the mouth” value was 1 minute to several minutes, the “persistence of cool feeling” value is not below 30 min and the cool feeling characteristic result was “more natural than that of Comparative Compound 1; also recorded: only a cool feeling was felt; also recorded: sharper than that of Comparative Compound 1”.
